Columns and labels:
[1] = system: eIF-2-alpha kinase GCN2 (Homo sapiens), Q9P2K8 [S808G]; assay: GCN2(Kin.Dom.2,S808G) DiscoveRx kinase panel; conditions: Compound concentration 1.0 uM
[2] = molecular target: Peroxisome proliferator-activated receptor gamma (Homo sapiens) (UniProt P37231); assay: PPARgamma Eurofins-Panlabs radioligand binding assay; parameters: ligand concentration 5 nM; conditions: Compound concentration 10.0 uM
[3] = molecular target: Dual specificity tyrosine-phosphorylation-regulated kinase 1B (Homo sapiens, UniProt Q9Y463); assay: DYRK1B DiscoveRx kinase panel
[4] = molecular target: Serine/threonine-protein kinase WNK3 (Homo sapiens) (UniProt Q9BYP7); assay: WNK3 DiscoveRx kinase panel; conditions: Compound concentration 1.0 uM
[5] = molecular target: Ribosomal protein S6 kinase alpha-4 (Homo sapiens) (UniProt O75676); assay: RPS6KA4(Kin.Dom.1-N-terminal) DiscoveRx kinase panel; conditions: Compound concentration 1.0 uM
[6] = molecular target: Phosphatidylinositol 4-phosphate 5-kinase type-1 gamma (Homo sapiens) (UniProt O60331); assay: PIP5K1C DiscoveRx kinase panel; conditions: Compound concentration 1.0 uM
[7] = molecular target: Casein kinase II subunit alpha (Homo sapiens) (UniProt P68400); assay: CSNK2A1 DiscoveRx kinase panel; conditions: Compound concentration 1.0 uM
[8] = molecular target: Wee1-like protein kinase (Homo sapiens) (UniProt P30291); assay: WEE1 DiscoveRx kinase panel; conditions: Compound concentration 1.0 uM
[9] = molecular target: Ribosomal protein S6 kinase alpha-3 (Homo sapiens) (UniProt P51812); assay: RSK2(Kin.Dom.2-C-terminal) DiscoveRx kinase panel; conditions: Compound concentration 1.0 uM
[10] = molecular target: Serine/threonine-protein kinase Nek7 (Homo sapiens) (UniProt Q8TDX7); assay: NEK7 DiscoveRx kinase panel; conditions: Compound concentration 1.0 uM
[11] = molecular target: Cyclin-dependent kinase 17 (Homo sapiens) (UniProt Q00537); assay: PCTK2 DiscoveRx kinase panel; conditions: Compound concentration 1.0 uM
[12] = molecular target: SRSF protein kinase 1 (Homo sapiens) (UniProt Q96SB4); assay: SRPK1 DiscoveRx kinase panel; conditions: Compound concentration 1.0 uM
[13] = molecular target: Sodium-dependent dopamine transporter (Homo sapiens, UniProt Q01959); assay: GPCRScan assay: inhibition of DAT; parameters: radioligand conc. used [nm] 3.6 – 16.0, parental cells stable HEK
[14] = molecular target: Bone morphogenetic protein receptor type-1B (Homo sapiens) (UniProt O00238); assay: BMPR1B DiscoveRx kinase panel; conditions: Compound concentration 1.0 uM
[15] = molecular target: Tyrosine-protein kinase Lck (Homo sapiens) (UniProt P06239); assay: Inhibition of Protein Tyrosine Kinase, LCK at 10 µM in the Eurofins-Panlabs enzyme assay (Eurofins_assay_176020); conditions: Compound concentration 10.0 uM
[16] = molecular target: voltage-gated sodium channel, site 2 (Rattus norvegicus, UniProt F1LQQ7+O08562+O88420+O88457+P04774+P04775+P08104+P15389+P15390+Q62968); assay: Inhibition of Sodium Channel, Site 2 at 10 µM in the Eurofins-Panlabs radioligand binding assay (Eurofins_assay_279510); format: protein assay; parameters: ligand concentration 5 nM, non-specific ligand with concentration 100 µM Veratridine, incubation time 60 min, incubation temperature 37 °C; conditions: male, Wistar, rat whole brain (except cerebellum) membranes, probe [3H] Batrachotoxinin, compound concentration 10 uM
[17] = molecular target: Vascular endothelial growth factor receptor 1 (Homo sapiens) (UniProt P17948); assay: FLT1 DiscoveRx kinase panel; conditions: Compound concentration 1.0 uM
[18] = molecular target: Activin receptor type-2A (Homo sapiens) (UniProt P27037); assay: ACVR2A DiscoveRx kinase panel; conditions: Compound concentration 1.0 uM
[19] = molecular target: SNF-related serine/threonine-protein kinase (Homo sapiens) (UniProt Q9NRH2); assay: SNRK DiscoveRx kinase panel; conditions: Compound concentration 1.0 uM
[20] = molecular target: Calcium/calmodulin-dependent protein kinase type 1 (Homo sapiens) (UniProt Q14012); assay: CAMK1 DiscoveRx kinase panel; conditions: Compound concentration 1.0 uM
[21] = molecular target: Myosin light chain kinase family member 4 (Homo sapiens) (UniProt Q86YV6); assay: MYLK4 DiscoveRx kinase panel; conditions: Compound concentration 1.0 uM
[22] = molecular target: Myotonin-protein kinase (Homo sapiens) (UniProt Q09013); assay: DMPK DiscoveRx kinase panel; conditions: Compound concentration 1.0 uM
[23] = molecular target: Serine/threonine-protein kinase PRP4 homolog (Homo sapiens) (UniProt Q13523); assay: PRP4 DiscoveRx kinase panel; conditions: Compound concentration 1.0 uM
[24] = molecular target: Tyrosine-protein kinase Fer (Homo sapiens) (UniProt P16591); assay: FER DiscoveRx kinase panel; conditions: Compound concentration 1.0 uM
[25] = molecular target: MAO-B (Homo sapiens, UniProt P27338); assay: Inhibition of Monoamine Oxidase MAO-B at compound concentration of 10.0 uM in the Eurofins-Panlabs enzyme assay (Eurofins_assay_140120); parameters: substrate with concentration 50 uM Kynuramine, incubation time 60 min, incubation temperature 37 C; conditions: human recombinant MAO-B expressed in insect Hi5 cells, probe Kynuramine (50 uM), compound concentration 10 uM
[26] = molecular target: Mitogen-activated protein kinase kinase kinase kinase 1 (Homo sapiens) (UniProt Q92918); assay: HPK1 DiscoveRx kinase panel; conditions: Compound concentration 1.0 uM
[27] = molecular target: 5'-AMP-activated protein kinase catalytic subunit alpha-2 (Homo sapiens) (UniProt P54646); assay: AMPK-alpha2 DiscoveRx kinase panel; conditions: Compound concentration 1.0 uM
[28] = molecular target: Glycogen synthase kinase-3 beta (Homo sapiens) (UniProt P49841); assay: GSK3B DiscoveRx kinase panel; conditions: Compound concentration 1.0 uM
[29] = molecular target: Proto-oncogene tyrosine-protein kinase Src (Homo sapiens) (UniProt P12931); assay: SRC DiscoveRx kinase panel; conditions: Compound concentration 1.0 uM
[30] = molecular target: Rhodopsin kinase GRK1 (Homo sapiens) (UniProt Q15835); assay: GRK1 DiscoveRx kinase panel; conditions: Compound concentration 1.0 uM
[31] = molecular target: Acetylcholinesterase (Homo sapiens) (UniProt P22303); conditions: Compound concentration 10.0 uM
[32] = molecular target: Mitogen-activated protein kinase kinase kinase 2 (Homo sapiens) (UniProt Q9Y2U5); assay: MAP3K2 DiscoveRx kinase panel; conditions: Compound concentration 1.0 uM
[33] = molecular target: Interferon-induced, double-stranded RNA-activated protein kinase (Homo sapiens) (UniProt P19525); assay: PRKR DiscoveRx kinase panel; conditions: Compound concentration 1.0 uM
[34] = molecular target: Casein kinase II subunit alpha' (Homo sapiens) (UniProt P19784); assay: CSNK2A2 DiscoveRx kinase panel; conditions: Compound concentration 1.0 uM
[35] = molecular target: LIM domain kinase 2 (Homo sapiens) (UniProt P53671); assay: LIMK2 DiscoveRx kinase panel; conditions: Compound concentration 1.0 uM
[36] = molecular target: Hormonally up-regulated neu tumor-associated kinase (Homo sapiens) (UniProt P57058); assay: HUNK DiscoveRx kinase panel; conditions: Compound concentration 1.0 uM
[37] = molecular target: Serine/threonine-protein kinase N2 (Homo sapiens) (UniProt Q16513); assay: PKN2 DiscoveRx kinase panel; conditions: Compound concentration 1.0 uM
[38] = molecular target: Serine/threonine-protein kinase BRSK2 (Homo sapiens) (UniProt Q8IWQ3); assay: BRSK2 DiscoveRx kinase panel; conditions: Compound concentration 1.0 uM
[39] = molecular target: Cyclin-dependent kinase 14 (Homo sapiens) (UniProt O94921); assay: PFTK1 DiscoveRx kinase panel; conditions: Compound concentration 1.0 uM
[40] = molecular target: Glutamate NMDA receptor (Rattus norvegicus) (UniProt P35439+Q00959+Q00960+Q00961+Q62645+Q8VHN2+Q9R1M7); conditions: Compound concentration 10.0 uM
[41] = molecular target: Acetylcholine receptor subunit alpha (Homo sapiens) (UniProt P02708); assay: Inhibition of Nicotinic Acetylcholine D1, Bungarotoxin at 10 µM in the Eurofins-Panlabs radioligand binding assay (Eurofins_assay_258700); conditions: Compound concentration 10.0 uM
[42] = molecular target: Protein kinase C iota type (Homo sapiens) (UniProt P41743); assay: PRKCI DiscoveRx kinase panel; conditions: Compound concentration 1.0 uM
[43] = molecular target: Leucine-rich repeat serine/threonine-protein kinase 2 (Homo sapiens) (UniProt Q5S007); assay: LRRK2 DiscoveRx kinase panel; conditions: Compound concentration 1.0 uM
[44] = molecular target: Tyrosine-protein kinase FRK (Homo sapiens) (UniProt P42685); assay: FRK DiscoveRx kinase panel; conditions: Compound concentration 1.0 uM

Chain of Sodium-dependent dopamine transporter (Q01959 whole entry): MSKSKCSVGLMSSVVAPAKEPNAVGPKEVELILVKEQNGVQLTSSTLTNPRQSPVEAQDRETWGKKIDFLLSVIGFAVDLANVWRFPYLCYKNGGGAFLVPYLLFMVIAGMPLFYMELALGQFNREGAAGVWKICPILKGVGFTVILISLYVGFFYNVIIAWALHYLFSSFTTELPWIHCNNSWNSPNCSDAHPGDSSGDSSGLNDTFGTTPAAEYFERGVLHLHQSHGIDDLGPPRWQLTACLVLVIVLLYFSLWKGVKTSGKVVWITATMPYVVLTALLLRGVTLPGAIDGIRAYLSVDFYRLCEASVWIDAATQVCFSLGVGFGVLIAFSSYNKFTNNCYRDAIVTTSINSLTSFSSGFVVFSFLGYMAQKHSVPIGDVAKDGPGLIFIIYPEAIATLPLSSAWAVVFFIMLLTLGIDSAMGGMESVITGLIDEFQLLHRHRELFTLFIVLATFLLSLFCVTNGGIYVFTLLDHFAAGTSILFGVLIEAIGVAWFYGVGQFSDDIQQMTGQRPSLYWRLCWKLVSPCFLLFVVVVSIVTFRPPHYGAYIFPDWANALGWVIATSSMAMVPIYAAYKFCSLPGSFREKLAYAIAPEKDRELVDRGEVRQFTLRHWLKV
Chain of Vascular endothelial growth factor receptor 1 (Homo sapiens) (P17948 whole entry): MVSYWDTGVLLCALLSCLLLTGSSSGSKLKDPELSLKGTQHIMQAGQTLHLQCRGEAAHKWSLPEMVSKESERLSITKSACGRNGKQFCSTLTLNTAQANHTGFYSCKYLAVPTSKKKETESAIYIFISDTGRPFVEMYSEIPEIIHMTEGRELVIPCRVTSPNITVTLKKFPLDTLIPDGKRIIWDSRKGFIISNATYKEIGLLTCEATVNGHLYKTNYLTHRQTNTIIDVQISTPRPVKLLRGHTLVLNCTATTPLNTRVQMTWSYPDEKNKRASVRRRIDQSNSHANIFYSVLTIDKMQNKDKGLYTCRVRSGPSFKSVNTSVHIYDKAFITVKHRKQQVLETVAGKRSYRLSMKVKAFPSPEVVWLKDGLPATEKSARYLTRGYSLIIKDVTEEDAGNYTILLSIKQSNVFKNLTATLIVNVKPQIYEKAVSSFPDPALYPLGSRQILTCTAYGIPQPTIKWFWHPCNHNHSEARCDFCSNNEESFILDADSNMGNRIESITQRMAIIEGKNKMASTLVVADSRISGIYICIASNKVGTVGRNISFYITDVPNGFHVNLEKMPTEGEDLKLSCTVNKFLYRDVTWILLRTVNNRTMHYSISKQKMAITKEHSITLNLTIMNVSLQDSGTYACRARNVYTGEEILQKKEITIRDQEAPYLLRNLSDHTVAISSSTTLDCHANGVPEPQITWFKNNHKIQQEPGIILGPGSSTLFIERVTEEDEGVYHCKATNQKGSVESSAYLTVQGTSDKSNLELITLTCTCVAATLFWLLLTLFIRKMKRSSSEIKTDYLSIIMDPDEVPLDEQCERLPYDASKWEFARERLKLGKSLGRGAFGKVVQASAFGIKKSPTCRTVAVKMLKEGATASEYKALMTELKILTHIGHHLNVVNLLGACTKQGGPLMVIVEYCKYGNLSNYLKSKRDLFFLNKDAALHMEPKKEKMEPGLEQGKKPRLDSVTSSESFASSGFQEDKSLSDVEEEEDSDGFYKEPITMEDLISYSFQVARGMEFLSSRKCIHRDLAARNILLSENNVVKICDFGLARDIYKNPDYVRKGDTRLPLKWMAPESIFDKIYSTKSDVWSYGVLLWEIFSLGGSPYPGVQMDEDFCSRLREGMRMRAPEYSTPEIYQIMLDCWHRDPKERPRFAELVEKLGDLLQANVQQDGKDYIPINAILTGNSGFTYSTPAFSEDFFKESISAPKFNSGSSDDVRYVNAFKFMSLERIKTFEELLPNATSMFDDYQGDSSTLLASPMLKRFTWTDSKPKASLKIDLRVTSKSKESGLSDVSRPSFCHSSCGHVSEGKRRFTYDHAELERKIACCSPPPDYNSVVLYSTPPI
Chain of Rhodopsin kinase GRK1 (Homo sapiens) (Q15835 whole entry): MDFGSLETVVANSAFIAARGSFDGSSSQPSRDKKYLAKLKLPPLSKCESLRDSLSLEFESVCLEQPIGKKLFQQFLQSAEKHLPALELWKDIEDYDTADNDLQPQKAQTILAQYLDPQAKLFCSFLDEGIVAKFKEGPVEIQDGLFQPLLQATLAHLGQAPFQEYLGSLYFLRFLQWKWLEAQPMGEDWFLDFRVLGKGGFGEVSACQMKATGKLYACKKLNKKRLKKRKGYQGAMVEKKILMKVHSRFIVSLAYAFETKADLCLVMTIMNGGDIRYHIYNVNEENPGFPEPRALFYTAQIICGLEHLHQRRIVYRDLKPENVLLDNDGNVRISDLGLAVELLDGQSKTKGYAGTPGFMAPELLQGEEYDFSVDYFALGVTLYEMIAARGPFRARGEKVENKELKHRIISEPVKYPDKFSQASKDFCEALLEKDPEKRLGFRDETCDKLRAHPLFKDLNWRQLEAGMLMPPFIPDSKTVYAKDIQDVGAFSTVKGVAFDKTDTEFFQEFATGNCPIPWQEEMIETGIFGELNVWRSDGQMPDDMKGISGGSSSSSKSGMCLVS
Chain of Ribosomal protein S6 kinase alpha-4 (Homo sapiens) (O75676 whole entry, looked up): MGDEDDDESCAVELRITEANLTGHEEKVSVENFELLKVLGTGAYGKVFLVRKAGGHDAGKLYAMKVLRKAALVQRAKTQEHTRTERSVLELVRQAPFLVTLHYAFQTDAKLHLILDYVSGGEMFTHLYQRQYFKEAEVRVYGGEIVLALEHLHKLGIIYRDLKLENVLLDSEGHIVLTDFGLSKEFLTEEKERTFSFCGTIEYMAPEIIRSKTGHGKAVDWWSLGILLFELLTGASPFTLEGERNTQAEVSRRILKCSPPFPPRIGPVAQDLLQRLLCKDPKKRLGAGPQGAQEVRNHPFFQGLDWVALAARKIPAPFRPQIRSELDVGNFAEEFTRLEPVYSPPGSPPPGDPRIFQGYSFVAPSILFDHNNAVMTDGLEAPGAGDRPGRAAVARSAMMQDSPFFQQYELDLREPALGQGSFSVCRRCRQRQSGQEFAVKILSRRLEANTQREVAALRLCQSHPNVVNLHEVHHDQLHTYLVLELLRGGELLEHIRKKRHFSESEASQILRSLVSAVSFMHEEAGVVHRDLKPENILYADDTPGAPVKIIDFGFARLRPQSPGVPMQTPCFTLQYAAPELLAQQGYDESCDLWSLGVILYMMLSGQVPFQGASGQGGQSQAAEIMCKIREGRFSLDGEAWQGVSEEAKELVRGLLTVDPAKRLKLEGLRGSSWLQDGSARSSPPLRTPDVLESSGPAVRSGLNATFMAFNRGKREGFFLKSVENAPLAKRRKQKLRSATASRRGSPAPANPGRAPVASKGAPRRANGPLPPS
Chain of SNF-related serine/threonine-protein kinase (Homo sapiens) (Q9NRH2 whole entry): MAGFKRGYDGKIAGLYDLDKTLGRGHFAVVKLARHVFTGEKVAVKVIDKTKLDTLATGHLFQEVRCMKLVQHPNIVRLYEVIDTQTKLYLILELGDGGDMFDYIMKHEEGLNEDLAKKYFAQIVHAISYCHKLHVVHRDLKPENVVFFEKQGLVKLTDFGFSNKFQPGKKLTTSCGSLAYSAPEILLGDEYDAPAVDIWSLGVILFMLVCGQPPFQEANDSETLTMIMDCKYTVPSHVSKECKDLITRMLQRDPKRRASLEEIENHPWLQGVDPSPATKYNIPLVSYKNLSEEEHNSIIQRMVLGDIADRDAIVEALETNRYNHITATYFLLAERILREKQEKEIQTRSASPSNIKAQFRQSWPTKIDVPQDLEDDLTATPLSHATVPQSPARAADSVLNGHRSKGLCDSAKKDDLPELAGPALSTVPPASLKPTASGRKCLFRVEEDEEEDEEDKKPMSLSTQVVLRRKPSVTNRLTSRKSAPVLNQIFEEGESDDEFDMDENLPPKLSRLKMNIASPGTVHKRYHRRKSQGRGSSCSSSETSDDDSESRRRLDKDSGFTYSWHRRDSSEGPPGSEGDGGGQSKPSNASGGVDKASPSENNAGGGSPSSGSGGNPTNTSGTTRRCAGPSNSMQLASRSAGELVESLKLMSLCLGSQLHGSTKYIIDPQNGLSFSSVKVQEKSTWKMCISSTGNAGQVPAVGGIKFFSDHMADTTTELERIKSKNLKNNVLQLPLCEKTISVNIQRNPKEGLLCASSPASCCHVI
Chain of Cyclin-dependent kinase 17 (Homo sapiens) (Q00537 whole entry, looked up): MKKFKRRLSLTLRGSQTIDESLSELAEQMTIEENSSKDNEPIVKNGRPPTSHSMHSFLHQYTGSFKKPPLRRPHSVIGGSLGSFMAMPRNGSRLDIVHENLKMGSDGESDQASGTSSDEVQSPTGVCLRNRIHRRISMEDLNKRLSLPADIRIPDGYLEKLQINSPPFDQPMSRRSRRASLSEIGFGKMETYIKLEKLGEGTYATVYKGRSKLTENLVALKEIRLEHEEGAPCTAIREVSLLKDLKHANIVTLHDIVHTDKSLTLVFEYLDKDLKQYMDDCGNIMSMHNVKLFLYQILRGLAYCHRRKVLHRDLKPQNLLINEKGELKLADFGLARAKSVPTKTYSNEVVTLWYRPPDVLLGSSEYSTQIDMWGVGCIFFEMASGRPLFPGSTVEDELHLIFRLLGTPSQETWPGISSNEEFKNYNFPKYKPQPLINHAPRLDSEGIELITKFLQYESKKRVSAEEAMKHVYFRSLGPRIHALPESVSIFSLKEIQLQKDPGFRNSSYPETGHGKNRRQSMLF
Chain of Serine/threonine-protein kinase Nek7 (Homo sapiens) (Q8TDX7 whole entry, looked up): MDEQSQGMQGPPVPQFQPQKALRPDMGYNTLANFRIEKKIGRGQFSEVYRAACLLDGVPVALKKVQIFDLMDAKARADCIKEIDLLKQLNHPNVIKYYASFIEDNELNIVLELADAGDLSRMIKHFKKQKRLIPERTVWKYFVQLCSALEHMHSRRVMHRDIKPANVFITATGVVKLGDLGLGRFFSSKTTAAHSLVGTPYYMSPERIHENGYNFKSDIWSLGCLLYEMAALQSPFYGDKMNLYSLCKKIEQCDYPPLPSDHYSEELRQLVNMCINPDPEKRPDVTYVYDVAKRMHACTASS

COc1cnccc1Nc1nc(-c2nn(Cc3c(F)cc(OCCO)cc3F)c3ccccc23)ncc1OC
residual activity [1]: 91%
inhibition [2]: -8%
Kd [3]: > 30 µM
residual activity ([3]; Compound concentration 1.0 uM): 6.7%
residual activity [4]: 87%
residual activity [5]: 91%
residual activity [6]: 100%
residual activity [7]: 100%
residual activity [8]: 100%
residual activity [9]: 98%
residual activity [10]: 78%
residual activity [11]: 87%
residual activity [12]: 90%
pKi [13]: < 5
Ki ([13]; read-out: Ki): > 10 µM
residual activity [14]: 100%
inhibition [15]: 6%
inhibition at 60 min, 10 µM [16]: 53%
residual activity [17]: 89%
residual activity [18]: 100%
residual activity [19]: 96%
residual activity [20]: 52%
residual activity [21]: 100%
residual activity [22]: 100%
residual activity [23]: 96%
residual activity [24]: 100%
inhibition at 60 min, 10 µM [25]: -15% (not active)
residual activity [26]: 77%
residual activity [27]: 95%
residual activity [28]: 100%
residual activity [29]: 100%
residual activity [30]: 100%
inhibition [31]: 2%
residual activity [32]: 97%
residual activity [33]: 88%
residual activity [34]: 48%
residual activity [35]: 97%
residual activity [36]: 99%
residual activity [37]: 97%
residual activity [38]: 83%
residual activity [39]: 87%
inhibition [40]: 4%
inhibition [41]: 14%
residual activity [42]: 87%
residual activity [43]: 100%
residual activity [44]: 85%
